The values below come from US20230302159A1, “COMPOUNDS AND COMPOSITIONS FOR TUMOR DETECTION AND SURGICAL GUIDANCE” (Cornell University, priority 2020, published 2023).

The nature of data set [1]: Fluorescence properties of the CypH dyes at pH 5.0 and pH 7.5 (Table 2). Conditions: for Ratio Intensity pH 5.0/7.5: fluorescence intensity pH 5.0 over pH 7.5. It counts as physicochemical. The text has this:
The excitation and emission maxima of CypH-1 are 760 and 777 nm, respectively. The signal intensity ratio of pH 5 over pH 7.5 was about 10. The meso-bridge ring size, lipophilicity and electro-density of CypH-1 was modified to provide better optical property. […] The best compound from this group was CypH-5 whose fluorescence ratio of pH 5.0/pH 7.5 was increased to 22. Based on this initial structure and property relationship, the second round of 10 new analogs were designed using CypH-5 as the core, focusing on modifying the electron density on the aniline ring and the indolinium ring. Various alkyl groups, such as methyl, ethyl, propyl, isopropyl and their combinations, were applied to these two positions.
The CypH analogs with other longer alkyl chains had much lower background fluorescence. […] Among them, CypH-11, which has a methyl isopropyl aniline and an isopropyl group on the indolinium ring, gave a 112-fold enhancement in fluorescence signal. CypH-11 has absorbance and emission maxima at 766 nm and 785 nm, respectively (FIG. 4) and was selected as the lead compound (vide infra).

Data set [2] in a line: Relative quantum yield measurement against ICG standard. It counts as physicochemical. Conditions: at pH 4.0, PBS. The procedure: Spectroscopic analysis. Stock solutions (1 mM in DMSO) of CypH-11, CypH-1, and Cy7 were stored at a −30° C. freezer and used for the following experiments. For the pKa measurement, the respective compound was diluted in 20 mM phosphate-buffered solution (PBS, pH 2.0-11.0) to a final concentration of 2 μM. The fluorescence intensity (λex=725 nm and λcm=785 nm) was measured on a plate reader (Tecan Infinite M1000 Pro), and the fluorescence images were recorded with a fluorescence imaging system (Bruker In-vivo F Pro). For the quantum yield measurement, indocyanine green (ICG, Φ=1.2% in water) was used as the standard compound. The respective compound (0.4, 0.8, 1.2, 1.6, and 2.0 μM) in PBS solutions (pH=4.0 and pH=7.4) was measured using a Cary 60 UV-Vis spectrophotometer and Cary Eclipse fluorescence spectrophotometer (Agilent). The slope of fluorescence vs absorbance was compared with that of ICG to calculate the relative quantum yield.

Another data set deals with OVASAHO cells. Kind of data set: Cell viability, cell counting kit-8 (CCK-8). The format is cell-based. Conditions: 2 μM for 1 hr, then 72 hrs in fresh medium. The procedure:
Cell viability. The cell viability of CypH-11 and CypH-1 were evaluated using the cell counting kit-8 (CCK-8) from Dojindo (Rockville, MD). OVASAHO cells (5.0×10^3) were seeded on a 96-well plate and cultured for 24 hrs. Then the cells were treated with CypH-11 (2 μM) and CypH-1 (2 μM) for 1 hr. After replacing the medium with fresh cell culture medium, the cells were incubated for another 72 hrs. The cell viability was examined by treating them with CCK-8 solution for 3 hrs and reading the absorbance at 450 nm using a plate reader.
In general terms: Tetrazolium assays rely on reduction of a dye to a coloured formazan, in cell work by metabolically active cells.

Data set [3] has as its system OVASAHO/RFP-Luc subcutaneous tumors. Description: In vivo fluorescence imaging of subcutaneous tumors by spraying, OVASAHO/RFP-Luc model. Details: species or system mice. As to conditions: for fluorescence on tumor and normal tissue after spray: no washing; for signal to background ratio (tumor-to-muscle): 2 μM. The text has this: Detection of subcutaneous tumors by spraying. To evaluate the in vivo performance of the fluorogenic probes via the “spray-and-see” technique, an OVASAHO subcutaneous tumor model was used. For a facile signal co-registration, the cells were first engineered to express red fluorescence protein (RFP). Two weeks after subcutaneous inoculating of OVASAHO/RFP-Luc cells into both flanks, the tumors reached around 5 mm in size. The skin on the tumor area was removed, then the CypH-11 or Cy7 solution (2 μM in PBS) was sprayed once onto the exposed area. The whole body fluorescence images were continuously captured at various time points without washing (FIG. 14A). The tumor tissues were conveniently delineated by their intrinsic RFP fluorescence.
Tumor models of subcutaneous implants and peritoneal implants. All animal procedures were carried out in compliance with the approved animal protocols and guidelines of the Institutional Animal Care and Use Committee at Weil Cornell Medical College. Mice (female, SCID Hairless Outbred Mouse) were purchased from Charles River (Wilmington, MA). To establish the subcutaneous implants, a suspension of OVASAHO/RFP-Luc cells (5.0×10^6) or SKOV3/GFP-Luc cells (5.0×10^6) in 100 μL PBS was inoculated into each flank of the female nude mice on both sides. After two weeks, the tumor implants grew to around 5 mm in size and were used for the spray experiment. To establish the peritoneal implants, SKOV3/GFP-Luc cells (5.0×10^6) suspended in […] were injected into the abdominal cavities of the female nude mice. After two weeks, the tumor growth was examined with an in vivo bioluminescence imaging system followed by peritoneal injection of D-luciferin potassium solution (200 μL, 15 mg/mL) for 10 min. Generally, mice bearing multiple disseminated peritoneal implants of 5 mm size in diameter were used for the experiment.
In vivo fluorescence imaging of subcutaneous tumors. Two subcutaneous tumor models (OVASAHO/RFP-Luc and SKOV3/GFP-Luc) were used to compare the imaging capability of CypH-11, CypH-1, and Cy7. Mice bearing the subcutaneous implants were anesthetized in an induction chamber using 2% isoflurane, and anesthesia was maintained with 1.5-2.0% isoflurane via a nose cone. Sterile surgical tools were used to remove skin around the tumor. The mice images were captured using an IVIS SpectrumCT System from PerkinElmer (Waltham, MA). OVASAHO/RFP-Luc and SKOV3/GFP-Luc tumors were captured under an RFP channel (Excitation: 520-550 nm and Emission: 570-590 nm) and a GFP channel (Excitation: 450-480 nm and Emission: 510 530 nm), respectively. A Cy7 channel (Excitation: 730-760 nm and Emission: 790-810 nm) was applied to evaluate the fluorescence generated by CypH-11, CypH-1, and Cy7. After skin removal, the tumor area and the background fluorescence under the Cy7 channel were measured first. Solutions of CypH-11, CypH-1, and Cy7 (2 μM each) were sprayed on the surgical area, and the fluorescence of the Cy7 channel was measured continuously at each time point (1, 3, 5, 7, 10, and 15 min). Ten, five, and three OVASAHO tumors were used to evaluate CypH-11, CypH-1, and Cy7, respectively. Six SKOV3 tumors were used to evaluate CypH-11. To evaluate the tumor-to-normal tissue ratio, the whole tumor regions and the adjacent open-skin areas were drawn, and their fluorescence intensity was acquired by the IVIS software. Tumor-to-normal tissue ratio value was calculated as the average fluorescence intensity of the tumor divided by that of the normal area. Also, tumor-bearing mice were euthanized by carbon dioxide inhalation or a high dose of isoflurane (5%). The subcutaneous tumors and the adjacent muscles were then extracted, and CypH-11 (2 μM) was sprayed onto them. Images were subsequently captured under GFP/RFP/Cy7 channels.

What is called cell viability is a per cent measure of how many cells are alive, often set against a control. Lower therefore signals more harm to the cells.

“Also recorded” adds a separate entry of the source.

As for `CC(C)N(C)c1ccc(OC2=C(/C=C/C3=[N+](C(C)C)c4ccccc4C3(C)C)CCC/C2=C\C=C2\N(C(C)C)c3ccccc3C2(C)C)cc1.[I-]` [CypH-11], in data set [1], the “Ratio Intensity pH 5.0/7.5” value was found to be 112, the “FL Intensity pH 5.0” value came to 5028, the “FL Max (nm) pH 5.0” value is recorded as 790 nm and the “FL Intensity pH 7.5” value was found to be 45. Besides, in data set [1], the “FL Max (nm) pH 7.5” value came to 785 nm. Further, in data set [1] (listed as 11), the “Ratio Intensity pH 5.0/7.5” value came to 111.7. The “quantum yield (Φ)” value in data set [2] was found to be 3.3%. Moreover, the cell viability with OVASAHO cells stood at 91.0±4.6%. Besides, the “time to fluorescence plateau” value in data set [3] (2 μM in PBS, sprayed once) is reported as at most 10 min. Besides, the “fluorescence on tumor and normal tissue after spray” value in data set [3] (2 μM sprayed) is reported as “high fluorescence only on tumors but not on normal tissue”. Besides, the “signal to background ratio (tumor-to-muscle)” value (“signal to background ratio” below) in data set [3] (1 min after spray) is recorded as 1.3. The “signal to background ratio” value in data set [3] (5 min after spray) is listed as 1.4. In addition, in data set [3] (10 min after spray), the “signal to background ratio” value is 1.5.

As for `CN(C)c1ccc(OC2=C(/C=C/C3=[N+](C)c4ccccc4C3(C)C)CCC/C2=C\C=C2\N(C)c3ccccc3C2(C)C)cc1.[Cl-]` [CypH-1, reference compound], in data set [1], the “Ratio Intensity pH 5.0/7.5” value is given as “about 10”, the “FL Intensity pH 5.0” value came out at 3363, the “FL Max (nm) pH 5.0” value was 787 nm and the “FL Intensity pH 7.5” value is on record as 334. Moreover, the “FL Max (nm) pH 7.5” value in data set [1] was found to be 782 nm. The “Ratio Intensity pH 5.0/7.5” value in data set [1] (listed as 1) is recorded as 10.1. This compound registered a cell viability with OVASAHO cells of 95.5±6.9%. In data set [3] (2 μM sprayed, all time points), the “tumor to muscle ratio over the time course” value is recorded as “around 1.0”. For the same compound, the “fluorescence on tumor and normal tissue after spray” value in data set [3] (2 μM sprayed) was “failed to detect the ovarian tumors by spraying; also recorded: very poor fluorescence enhancement in both the tumor and neighboring normal tissues”.
